Test [1] deals with T1, Alkaline phosphatase, tissue-nonspecific isozyme (Homo sapiens, UniProt P05186).
T1 sequence (P05186 whole entry): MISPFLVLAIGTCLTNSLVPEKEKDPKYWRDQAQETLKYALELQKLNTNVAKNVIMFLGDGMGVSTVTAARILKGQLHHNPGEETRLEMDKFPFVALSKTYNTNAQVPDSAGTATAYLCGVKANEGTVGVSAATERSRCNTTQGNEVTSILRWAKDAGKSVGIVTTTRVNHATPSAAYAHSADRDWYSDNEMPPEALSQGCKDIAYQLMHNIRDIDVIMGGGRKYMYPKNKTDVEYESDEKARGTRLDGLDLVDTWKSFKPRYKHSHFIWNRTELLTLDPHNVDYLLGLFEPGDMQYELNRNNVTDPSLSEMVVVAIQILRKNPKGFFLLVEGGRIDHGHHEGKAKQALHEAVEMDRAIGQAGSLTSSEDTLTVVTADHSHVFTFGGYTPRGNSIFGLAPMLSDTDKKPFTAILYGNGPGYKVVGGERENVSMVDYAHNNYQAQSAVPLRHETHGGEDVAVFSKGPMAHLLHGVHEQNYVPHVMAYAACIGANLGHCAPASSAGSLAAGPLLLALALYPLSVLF

Another test has as its target Albumin (Bos taurus, UniProt P02769). Nature of the test: Counterscreen for inhibitors of T-cell receptor (TCR)-CD3 interaction: Fluorescence-based biochemical high throughput dose response assay to identify inhibitors of T-cell receptor (TCR)-CD3 interaction using a TAMRA-labeled BSA probe. The format is functional. Background: A counterscreen serves to expose hits that act by an unwanted route or on another target.

The target in another test is Cytochrome P450 2C9 (Homo sapiens, UniProt P11712). The following applies: Potency.
Test [2] has as its target T2, Estrogen receptor beta (Homo sapiens, UniProt Q92731). As to the kind of experiment: ERβ–SRC-3 coactivator interaction inhibitors, confirmation, orthogonal assay, biochemical, ELISA, streptavidin-HRP readout (AID 1060). On the technique in general: In an ELISA, binding on a coated surface is turned into a signal by an enzyme label.
The target in test [3] is T2, Estrogen receptor beta.
Another test concerns the target Ion channel NompC (Danio rerio, UniProt Q7T1G6). As to the kind of experiment: Fluorescence counterscreen assay for TRPML3 agonists: dose response cell-based high-throughput screening assay to identify agonists of the transient receptor potential channel N1 (TRPN1). [Related pubchem assays: 1526, 1424, 1448 ]. The format is functional.
Another test has as its target Mucolipin-3 (Homo sapiens, UniProt Q8TDD5). As to the kind of experiment: Dose response cell-based high-throughput screening assay for agonists of the transient receptor potential channel ML3 (TRPML3). [Related pubchem assays: 1526, 1424, 1448 ]. The format is functional.
Test [4] deals with T3, Corticotropin-releasing factor receptor 2/Corticotropin-releasing factor-binding protein (Homo sapiens, UniProt P24387+Q13324).
T3 sequence (Q13324 whole entry): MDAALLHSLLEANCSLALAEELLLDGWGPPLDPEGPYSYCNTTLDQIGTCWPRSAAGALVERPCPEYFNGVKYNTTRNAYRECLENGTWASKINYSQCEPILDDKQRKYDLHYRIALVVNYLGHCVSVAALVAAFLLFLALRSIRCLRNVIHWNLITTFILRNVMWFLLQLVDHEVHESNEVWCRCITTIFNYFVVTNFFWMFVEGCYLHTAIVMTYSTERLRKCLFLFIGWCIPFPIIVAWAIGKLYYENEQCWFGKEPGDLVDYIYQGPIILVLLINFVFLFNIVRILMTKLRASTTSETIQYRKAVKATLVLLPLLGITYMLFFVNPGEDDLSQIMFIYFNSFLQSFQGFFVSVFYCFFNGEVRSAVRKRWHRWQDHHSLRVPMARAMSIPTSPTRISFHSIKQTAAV
T3 sequence (P24387 whole entry): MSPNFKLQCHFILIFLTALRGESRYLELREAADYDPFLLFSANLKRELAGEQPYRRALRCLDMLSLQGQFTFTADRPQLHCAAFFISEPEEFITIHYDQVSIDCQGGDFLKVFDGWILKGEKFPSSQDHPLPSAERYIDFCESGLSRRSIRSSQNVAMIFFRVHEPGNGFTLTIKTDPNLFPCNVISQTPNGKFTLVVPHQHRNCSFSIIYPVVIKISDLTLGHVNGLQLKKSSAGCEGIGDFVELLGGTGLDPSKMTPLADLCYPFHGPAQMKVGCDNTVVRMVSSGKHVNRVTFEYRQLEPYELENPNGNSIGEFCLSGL
As to the kind of experiment: activators of CRF receptor 2 with binding protein – uHTS hits, confirmation (AID 602473). The settings on record: read-out: EC50_Mean. The format is functional.

Another test concerns the target Prothrombin (Homo sapiens, UniProt P00734). Nature of the test: Thrombin 1536 HTS Dose Response Confirmation. [Related pubchem assays: 1046 (Thrombin 1536 HTS; hits were confirmed in this assay)]. The format is functional.
Test [5] is described as follows: Luminescence Cell-Based Dose Response HTS to Identify Inhibitors of 5'UTR Stem-Loop Driven Prion Protein mRNA Translation in H4 Neuroglioblastoma Cells. [Related pubchem assays: 1827 (Project Summary), 1813 (Primary HTS)]. The format is functional.
Test [6] is described as follows: inhibitors of SNCA 5'UTR-driven reporter translation, confirmation, H4 neuroglioma cells, luminescence (AID 1988). The format is functional, cell-based.
The test system of a further test is HT-1080. As to the kind of experiment: cytotoxicity in HT1080 fibrosarcoma cells, cell-based, fluorescence readout (AID 620). The format is functional. The settings on record: Homo sapiens.
Test [7] in a line: inhibitors of firefly luciferase expression or activity, dose response, H4 neuroglioma cells, luminescence (AID 1990). The format is functional, cell-based.
The target in test [8] is Luciferin 4-monooxygenase (Photinus pyralis, UniProt P08659). As to the kind of experiment: Counter Screen for Luciferase-based Assay Positives. [Related pubchem assays: 620, 618, 411 ].
Test [9] deals with T4, Apoptotic protease-activating factor 1 (Homo sapiens, UniProt O14727).
T4 sequence (O14727 whole entry): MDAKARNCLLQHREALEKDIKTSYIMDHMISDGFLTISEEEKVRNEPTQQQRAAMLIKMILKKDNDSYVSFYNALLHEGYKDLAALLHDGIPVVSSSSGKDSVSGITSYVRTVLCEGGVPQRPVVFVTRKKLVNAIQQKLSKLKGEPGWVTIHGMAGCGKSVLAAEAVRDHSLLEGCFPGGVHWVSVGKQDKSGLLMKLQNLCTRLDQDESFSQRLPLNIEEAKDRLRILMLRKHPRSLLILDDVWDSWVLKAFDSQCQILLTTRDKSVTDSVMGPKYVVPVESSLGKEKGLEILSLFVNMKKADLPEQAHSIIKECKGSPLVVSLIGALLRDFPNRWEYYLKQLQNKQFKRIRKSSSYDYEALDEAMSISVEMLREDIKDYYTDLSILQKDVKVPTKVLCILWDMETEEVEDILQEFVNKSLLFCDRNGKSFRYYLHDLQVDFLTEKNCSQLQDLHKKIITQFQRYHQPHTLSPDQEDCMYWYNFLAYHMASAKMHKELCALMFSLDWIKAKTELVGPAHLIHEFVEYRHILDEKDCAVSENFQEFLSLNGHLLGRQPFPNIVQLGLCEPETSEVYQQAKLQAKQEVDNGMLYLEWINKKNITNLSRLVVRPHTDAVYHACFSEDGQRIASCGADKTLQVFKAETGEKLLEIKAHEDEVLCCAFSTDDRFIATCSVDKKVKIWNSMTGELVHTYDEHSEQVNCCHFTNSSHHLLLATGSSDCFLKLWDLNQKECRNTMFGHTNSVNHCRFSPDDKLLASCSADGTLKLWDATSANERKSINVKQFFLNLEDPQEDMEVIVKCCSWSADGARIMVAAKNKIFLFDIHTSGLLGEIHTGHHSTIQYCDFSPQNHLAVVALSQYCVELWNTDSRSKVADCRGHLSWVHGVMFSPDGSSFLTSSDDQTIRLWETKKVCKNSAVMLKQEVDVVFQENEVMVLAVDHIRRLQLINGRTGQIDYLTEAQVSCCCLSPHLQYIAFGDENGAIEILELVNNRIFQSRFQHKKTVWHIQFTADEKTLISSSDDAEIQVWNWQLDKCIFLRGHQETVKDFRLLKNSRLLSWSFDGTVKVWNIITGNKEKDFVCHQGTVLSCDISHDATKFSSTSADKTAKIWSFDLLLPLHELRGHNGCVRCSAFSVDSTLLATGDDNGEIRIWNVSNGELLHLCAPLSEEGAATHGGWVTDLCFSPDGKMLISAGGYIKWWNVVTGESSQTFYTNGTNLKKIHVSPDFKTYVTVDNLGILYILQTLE
The format is functional.

Test [10] in a line: cytotoxicity in KRAS-transformed pancreatic duct cells, primary screen, cell-based, fluorescence, HTS (AID 431).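 Further: cell line used: HPDE-C7K.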 The settings on record: Homo sapiens. The format is functional.
A short description of test [11]: growth suppression of beta-catenin-knockout colon cells, dose response, cell-based, HCT116, human colon tumor (AID 1045).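 Further: HCT116 colon tumor cells with beta catenin knocked out; cells exposed to compound for 60 hours.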 The format is functional.
Test [12] in a line: growth suppression of PTEN-null colon cells, dose response, cell-based, HCT116 PTEN knockout (AID 1047).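 Further: HCT116 colon tumor cells with PTEN knocked out; cells exposed to compound for 60 hours before readout; potency for loss of cell viability measured by luminescence.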 The format is functional.
Test [13] is described as follows: cytotoxicity in HPDE-C7 cells, cell-based, fluorescence, HTS (AID 430). The following applies: Homo sapiens. The format is functional.
The target of test [14] is Melanin-concentrating hormone receptor 1 (Homo sapiens, UniProt Q99705). As to the kind of experiment: Fluorescence-based counterscreen for antagonists of the G-protein coupled receptor 7 (GPR7): cell-based high throughput dose response assay to identify antagonists of the melanin-concentrating hormone receptor 1 (MCHR1). The format is functional.
Another test deals with Estrogen receptor (Homo sapiens, UniProt P03372).
For test [15], the target named is Protein-tyrosine kinase 2-beta (Homo sapiens, UniProt Q14289).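 Further: potency of inhibitors of PYK2 kinase phosphorylation of poly-GT substrate.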
For test [16], the target named is Beta-lactamase (Salmonella choleraesuis (strain SC-B67), UniProt Q5J463).
For test [17], the target named is Beta-lactamase (Pseudomonas aeruginosa, UniProt Q79MP6).
For test [18], the target named is Voltage-dependent T-type calcium channel subunit alpha-1H (Homo sapiens, UniProt O95180). The format is functional.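 Further: channel activity triggered by adding a high calcium stimulation buffer.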

EC50, IC50 and AC50 data for twelve compounds are collected here from ChEMBL document CHEMBL1201862, “PubChem BioAssay data set” (2004).

The source made the active and inactive calls. Where only a bound is given, the exact number is not on record here.

T2 sequence (Q92731 whole entry): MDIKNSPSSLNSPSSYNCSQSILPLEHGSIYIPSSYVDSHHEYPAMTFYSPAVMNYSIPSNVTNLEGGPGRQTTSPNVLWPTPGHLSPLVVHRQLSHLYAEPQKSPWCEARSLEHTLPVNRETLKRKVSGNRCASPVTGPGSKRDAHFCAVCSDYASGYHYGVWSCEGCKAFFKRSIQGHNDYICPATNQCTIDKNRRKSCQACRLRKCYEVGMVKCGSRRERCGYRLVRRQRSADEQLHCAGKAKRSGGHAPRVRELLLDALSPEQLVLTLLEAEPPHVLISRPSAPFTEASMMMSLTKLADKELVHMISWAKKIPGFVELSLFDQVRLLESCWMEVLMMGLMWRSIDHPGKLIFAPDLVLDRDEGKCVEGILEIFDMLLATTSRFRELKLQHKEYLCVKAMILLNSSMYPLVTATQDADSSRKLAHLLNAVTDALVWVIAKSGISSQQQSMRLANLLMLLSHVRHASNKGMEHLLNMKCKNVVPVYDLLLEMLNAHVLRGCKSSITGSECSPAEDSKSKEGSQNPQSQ
Chain of Ion channel NompC (Q7T1G6 whole entry): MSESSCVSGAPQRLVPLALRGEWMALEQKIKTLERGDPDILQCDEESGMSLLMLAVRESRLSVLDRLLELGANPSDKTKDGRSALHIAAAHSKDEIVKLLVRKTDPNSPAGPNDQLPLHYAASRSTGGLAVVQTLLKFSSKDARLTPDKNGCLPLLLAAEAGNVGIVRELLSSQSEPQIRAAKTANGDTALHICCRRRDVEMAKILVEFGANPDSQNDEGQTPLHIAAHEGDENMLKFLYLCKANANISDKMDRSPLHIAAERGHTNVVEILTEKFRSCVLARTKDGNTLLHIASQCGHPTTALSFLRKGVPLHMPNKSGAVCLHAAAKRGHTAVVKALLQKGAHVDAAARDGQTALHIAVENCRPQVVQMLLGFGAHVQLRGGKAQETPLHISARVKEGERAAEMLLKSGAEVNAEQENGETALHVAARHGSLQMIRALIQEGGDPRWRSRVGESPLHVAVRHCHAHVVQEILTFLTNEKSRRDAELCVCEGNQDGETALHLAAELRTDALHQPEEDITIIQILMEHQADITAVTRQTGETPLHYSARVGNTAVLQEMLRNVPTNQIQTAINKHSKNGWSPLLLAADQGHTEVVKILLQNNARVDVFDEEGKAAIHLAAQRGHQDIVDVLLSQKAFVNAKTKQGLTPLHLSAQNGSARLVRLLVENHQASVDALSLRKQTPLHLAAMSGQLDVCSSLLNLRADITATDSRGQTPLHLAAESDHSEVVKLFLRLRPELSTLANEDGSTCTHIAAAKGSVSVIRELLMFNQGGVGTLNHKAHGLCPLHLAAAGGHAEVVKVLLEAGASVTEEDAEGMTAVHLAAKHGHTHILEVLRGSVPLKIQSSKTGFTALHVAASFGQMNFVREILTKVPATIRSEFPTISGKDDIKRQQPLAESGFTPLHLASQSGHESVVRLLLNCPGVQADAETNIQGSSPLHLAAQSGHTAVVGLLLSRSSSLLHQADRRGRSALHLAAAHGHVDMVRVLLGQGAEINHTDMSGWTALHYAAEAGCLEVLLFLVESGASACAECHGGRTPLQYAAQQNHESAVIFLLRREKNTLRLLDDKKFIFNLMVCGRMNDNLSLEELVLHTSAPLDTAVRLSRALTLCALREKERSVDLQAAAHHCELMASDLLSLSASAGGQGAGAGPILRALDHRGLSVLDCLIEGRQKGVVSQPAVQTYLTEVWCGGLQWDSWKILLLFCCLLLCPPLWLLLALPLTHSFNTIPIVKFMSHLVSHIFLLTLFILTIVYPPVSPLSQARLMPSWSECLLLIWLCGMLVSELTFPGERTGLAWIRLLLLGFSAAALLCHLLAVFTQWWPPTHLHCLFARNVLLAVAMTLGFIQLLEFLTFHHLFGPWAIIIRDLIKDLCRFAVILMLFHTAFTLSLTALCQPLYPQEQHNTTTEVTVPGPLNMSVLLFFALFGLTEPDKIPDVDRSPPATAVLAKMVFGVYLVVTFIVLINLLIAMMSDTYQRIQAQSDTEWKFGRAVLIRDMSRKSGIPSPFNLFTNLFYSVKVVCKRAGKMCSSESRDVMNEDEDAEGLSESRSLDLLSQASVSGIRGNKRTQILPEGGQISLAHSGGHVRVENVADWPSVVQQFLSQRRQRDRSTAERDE
Chain of Cytochrome P450 2C9 (P11712 whole entry): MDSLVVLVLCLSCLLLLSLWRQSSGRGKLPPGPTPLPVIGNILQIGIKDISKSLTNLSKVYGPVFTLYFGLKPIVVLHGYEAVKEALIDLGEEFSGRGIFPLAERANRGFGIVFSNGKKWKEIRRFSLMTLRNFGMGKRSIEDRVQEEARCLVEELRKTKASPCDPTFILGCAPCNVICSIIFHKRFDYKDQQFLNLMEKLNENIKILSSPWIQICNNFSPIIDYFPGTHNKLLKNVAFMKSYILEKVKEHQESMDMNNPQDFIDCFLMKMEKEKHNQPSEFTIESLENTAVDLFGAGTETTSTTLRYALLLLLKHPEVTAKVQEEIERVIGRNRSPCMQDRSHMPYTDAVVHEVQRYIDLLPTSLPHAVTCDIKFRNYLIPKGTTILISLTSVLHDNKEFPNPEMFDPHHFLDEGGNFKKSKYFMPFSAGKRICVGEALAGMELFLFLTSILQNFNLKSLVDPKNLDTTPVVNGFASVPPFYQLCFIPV
Chain of Luciferin 4-monooxygenase (P08659 whole entry): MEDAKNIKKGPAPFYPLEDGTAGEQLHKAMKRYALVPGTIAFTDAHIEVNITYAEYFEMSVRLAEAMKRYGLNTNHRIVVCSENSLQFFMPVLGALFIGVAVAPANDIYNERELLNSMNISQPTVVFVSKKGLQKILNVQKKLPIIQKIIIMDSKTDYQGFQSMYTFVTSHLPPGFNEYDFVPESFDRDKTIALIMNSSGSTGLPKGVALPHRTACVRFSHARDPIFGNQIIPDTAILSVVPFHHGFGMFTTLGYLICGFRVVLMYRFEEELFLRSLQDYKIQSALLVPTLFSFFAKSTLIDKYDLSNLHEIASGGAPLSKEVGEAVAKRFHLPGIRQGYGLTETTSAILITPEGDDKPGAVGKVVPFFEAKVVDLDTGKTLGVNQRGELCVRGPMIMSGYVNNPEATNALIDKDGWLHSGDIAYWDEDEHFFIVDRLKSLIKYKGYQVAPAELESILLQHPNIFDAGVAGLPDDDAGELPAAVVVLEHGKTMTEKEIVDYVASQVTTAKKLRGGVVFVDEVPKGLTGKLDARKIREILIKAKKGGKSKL
Chain of Mucolipin-3 (Q8TDD5 whole entry): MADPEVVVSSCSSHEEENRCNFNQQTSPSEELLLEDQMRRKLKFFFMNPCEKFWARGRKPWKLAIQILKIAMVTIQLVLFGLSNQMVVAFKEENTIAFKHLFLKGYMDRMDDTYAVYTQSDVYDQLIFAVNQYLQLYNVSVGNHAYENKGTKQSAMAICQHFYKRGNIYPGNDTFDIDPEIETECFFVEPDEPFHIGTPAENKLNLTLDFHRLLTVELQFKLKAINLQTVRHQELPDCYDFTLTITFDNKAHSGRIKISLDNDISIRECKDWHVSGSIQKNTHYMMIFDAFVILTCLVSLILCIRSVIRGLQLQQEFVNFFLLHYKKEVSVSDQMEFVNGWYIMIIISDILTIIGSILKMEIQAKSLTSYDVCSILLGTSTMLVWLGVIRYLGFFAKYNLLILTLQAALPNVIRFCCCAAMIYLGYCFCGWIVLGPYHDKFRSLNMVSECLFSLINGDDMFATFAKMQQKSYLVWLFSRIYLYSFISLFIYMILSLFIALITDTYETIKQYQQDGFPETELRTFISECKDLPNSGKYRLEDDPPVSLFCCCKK
Chain of Beta-lactamase (Pseudomonas aeruginosa, UniProt Q79MP6) (Q79MP6 whole entry): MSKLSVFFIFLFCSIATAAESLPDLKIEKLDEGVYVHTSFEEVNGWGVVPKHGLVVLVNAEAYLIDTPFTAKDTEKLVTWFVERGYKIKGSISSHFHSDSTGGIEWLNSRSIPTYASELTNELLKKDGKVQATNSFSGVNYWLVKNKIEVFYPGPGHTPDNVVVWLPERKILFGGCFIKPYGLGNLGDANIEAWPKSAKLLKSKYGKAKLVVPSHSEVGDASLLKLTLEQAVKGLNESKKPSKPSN
Chain of Beta-lactamase (Salmonella choleraesuis (strain SC-B67), UniProt Q5J463) (Q5J463 whole entry): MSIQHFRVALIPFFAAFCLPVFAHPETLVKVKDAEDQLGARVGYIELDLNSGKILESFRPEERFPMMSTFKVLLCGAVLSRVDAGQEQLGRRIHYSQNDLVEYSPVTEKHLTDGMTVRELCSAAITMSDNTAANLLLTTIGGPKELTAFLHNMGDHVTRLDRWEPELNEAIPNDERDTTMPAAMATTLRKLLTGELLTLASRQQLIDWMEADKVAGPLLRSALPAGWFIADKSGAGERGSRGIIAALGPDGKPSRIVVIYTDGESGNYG
Chain of Estrogen receptor (P03372 whole entry): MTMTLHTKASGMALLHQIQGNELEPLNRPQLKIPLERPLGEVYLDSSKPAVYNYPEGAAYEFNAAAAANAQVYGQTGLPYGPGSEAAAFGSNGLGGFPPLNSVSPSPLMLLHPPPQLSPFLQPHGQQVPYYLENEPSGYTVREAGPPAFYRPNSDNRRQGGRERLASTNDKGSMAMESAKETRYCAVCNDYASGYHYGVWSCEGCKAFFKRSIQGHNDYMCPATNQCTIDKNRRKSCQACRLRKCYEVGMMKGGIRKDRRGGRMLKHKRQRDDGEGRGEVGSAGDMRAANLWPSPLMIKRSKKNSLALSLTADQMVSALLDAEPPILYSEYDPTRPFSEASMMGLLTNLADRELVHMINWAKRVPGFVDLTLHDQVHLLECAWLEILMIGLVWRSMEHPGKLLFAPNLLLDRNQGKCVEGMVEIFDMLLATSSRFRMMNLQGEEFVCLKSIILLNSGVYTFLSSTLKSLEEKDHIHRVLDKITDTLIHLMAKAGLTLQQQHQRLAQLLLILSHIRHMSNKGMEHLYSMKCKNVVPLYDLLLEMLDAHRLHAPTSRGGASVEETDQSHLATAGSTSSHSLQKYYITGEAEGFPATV

What is called IC50 is the concentration at which inhibition is half-maximal. Take `COc1ccc(/C=C2\SC(=O)N(CC(=O)NNC(=O)c3ccccc3O)C2=O)cc1`: the EC50 in test [1] is reported as 64.3 µM (not active). Also, the IC50 at Albumin is > 94.1 µM (inactive).

What is called AC50 is the concentration giving half of the maximal activity seen. In the case of `C=C[C@@](C)(O)CC[C@H]1[C@]2(C)CCCC(C)(C)[C@H]2CC[C@]1(C)O`, the AC50 on Cytochrome P450 2C9 is 31.6 µM (inconclusive).

Consider `CC12CCC(=O)N1C(C(=O)OCC(=O)Nc1sccc1C#N)CS2` (configuration not stated), for which the IC50 was 0.118 µM (not active) against Estrogen receptor beta [2] and 14.4 µM (active) on Estrogen receptor beta [3].

As for `CCOC(=O)OCC1OC(c2ccccc2)C=CC1OC(=O)OCC` (configuration not stated), at Cytochrome P450 2C9, the AC50 is 3.16 µM (inconclusive).

Turning to `O=C(c1ccc([N+](=O)[O-])cc1)N(Cc1ccc(Cl)cc1Cl)N1C(=O)CCCC1=O`, the EC50 at Ion channel NompC was > 29.9 µM (not active); at Mucolipin-3 it was > 29.9 µM (not active); in test [4] it was > 53 µM (inactive).

In the case of `COc1ccc(CCNC(=O)C2CCC(CNS(=O)(=O)c3ccccc3)CC2)cc1OC` (configuration not stated), the EC50 in test [1] is reported as > 100 µM (not active). The IC50 at Prothrombin was > 50 µM (not active).

As for `O=c1c(Cl)c(N2CCCCC2)cnn1-c1nc2ccccc2[nH]1`, the EC50 in test [5] was 34.4 µM (active); in test [6], 2.68 µM (active); in the test with HT-1080 it was > 50 µM (not active); in test [7], 2.55 µM (active); in test [8], 4.25 µM (active).

As to `Nc1c(C(=O)NCc2ccc3c(c2)OCO3)c2nc3ccccc3nc2n1CCCN1CCOCC1`, in [9], the IC50 is 76.8 µM (active). In addition, the EC50 is 13.2 µM (active) in [10], 20.2 µM (active) in test [11], 20.6 µM (active) in [12] and 9.92 µM (active) in test [13].

On to `CC(C)N(C(=O)c1ccc2nc(-c3ccccc3)c(-c3ccccc3)nc2c1)C(C)C`, for which the EC50 on Ion channel NompC was > 29.9 µM (not active); on Mucolipin-3 it was 1.52 µM (active).

Turning to `CCOC(=O)C(C)On1c(-c2ccccc2)nc2ccc([N+](=O)[O-])cc21` (configuration not stated), in test [14], the IC50 was 15.9 µM (not active).

In the case of `C/N=C1\SC(CC(=O)Nc2ccc(C(C)=O)cc2)C(=O)N1C` (configuration not stated), the IC50 on Estrogen receptor and against Estrogen receptor beta [3] was > 50 µM (not active) in each case.

Take `CCN(CC)c1ccc2cc(-c3nc4ccccc4[nH]3)c(=O)oc2c1`: the IC50 in [15] is 2.32 µM (active); on Beta-lactamase [16], 0.709 µM (active); on Beta-lactamase [17], 3.24 µM (active). The EC50 in the test with HT-1080 was > 50 µM (not active); in [8], < 0.2 µM (active); in [18] it was 0.434 µM (active).
